Measured values taken from PubChem BioAssay AID1963846 (Molecular Pharmacology Branch, DTP, NCI, 2024).

Tested on: 454973-116-R2-J3-PDC complex spheroid viability
Assay: Anticancer human tumor 454973-116-R2-J3-PDC patient-derived pancreatic carcinoma cell line growth inhibition [POLQ]
Settings: for IC50: curve of first compound; for viability, T/C: stronger effect = lower value
Method in brief: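 PDC + HUVEC + MSC complex spheroids; POLQ inhibitors ± partner drugs; top conc. at/near clinical Cmax, else 10 microM (SN-38 1 microM), half-log dilutions; 37 degrees C, 5% CO2.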

[1] = second compound 0.0316 µM, first compound 0.00316 µM
[2] = second compound 0.0316 µM, first compound 0.01 µM
[3] = second compound 0.0316 µM, first compound 0.0316 µM
[4] = second compound 0.0316 µM, first compound 0.1 µM
[5] = second compound 0.1 µM, first compound 0.00316 µM
[6] = second compound 0.1 µM, first compound 0.01 µM
[7] = second compound 0.1 µM, first compound 0.0316 µM
[8] = second compound 0.1 µM, first compound 0.1 µM
[9] = second compound 0.316 µM, first compound 0.00316 µM
[10] = second compound 0.316 µM, first compound 0.01 µM
[11] = second compound 0.316 µM, first compound 0.0316 µM
[12] = second compound 0.316 µM, first compound 0.1 µM
[13] = second compound 1 µM, first compound 0.00316 µM
[14] = second compound 1 µM, first compound 0.01 µM
[15] = second compound 1 µM, first compound 0.0316 µM
[16] = second compound 1 µM, first compound 0.1 µM
[17] = second compound 3.16 µM, first compound 0.00316 µM
[18] = second compound 3.16 µM, first compound 0.01 µM
[19] = second compound 3.16 µM, first compound 0.0316 µM
[20] = second compound 3.16 µM, first compound 0.1 µM
[21] = second compound 10 µM, first compound 0.00316 µM
[22] = second compound 10 µM, first compound 0.01 µM
[23] = second compound 10 µM, first compound 0.0316 µM
[24] = second compound 10 µM, first compound 0.1 µM
[25] = second compound 0.0316 µM, first compound 0.316 µM
[26] = second compound 0.0316 µM, first compound 1 µM
[27] = second compound 0.1 µM, first compound 0.316 µM
[28] = second compound 0.1 µM, first compound 1 µM
[29] = second compound 0.316 µM, first compound 0.316 µM
[30] = second compound 0.316 µM, first compound 1 µM
[31] = second compound 1 µM, first compound 0.316 µM
[32] = second compound 1 µM, first compound 1 µM
[33] = second compound 3.16 µM, first compound 0.316 µM
[34] = second compound 3.16 µM, first compound 1 µM
[35] = second compound 10 µM, first compound 0.316 µM
[36] = second compound 10 µM, first compound 1 µM
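Note: spheroids exposed to drugs for seven days before measurement.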
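Throughout, for viability, T/C: percent viability relative to DMSO vehicle control wells taken as 100%.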

For CC[C@@]1(O)C(=O)OCc2c1cc1n(c2=O)Cc2cc3c(CN(C)C)c(O)ccc3nc2-1 + COC1C(OC(N)=O)C(O)C(Oc2ccc3c(O)c(NC(=O)c4ccc(O)c(CC=C(C)C)c4)c(=O)oc3c2C)OC1(C)C, the IC50 (second compound 0.0316 µM) was 0.02 µM, the IC50 (second compound 0.1 µM) was 0.0178 µM and the IC50 (second compound 0.316 µM) was 0.0184 µM. It also gave an IC50 (second compound 1 µM) of 0.0189 µM, an IC50 (second compound 3.16 µM) of 0.0183 µM and an IC50 (second compound 10 µM) of 0.0175 µM. For the same compound, the viability, T/C (second compound 0.0316 µM, first compound 0.000316 µM) was 113%, the viability, T/C (second compound 0.0316 µM, first compound 0.001 µM) was 106% and the viability, T/C [1] was 105%. It also gave a viability, T/C [2] of 86.8%, a viability, T/C [3] of 25.5% and a viability, T/C [4] of 14.9%. It also gave a viability, T/C (second compound 0.1 µM, first compound 0.000316 µM) of 106%, a viability, T/C (second compound 0.1 µM, first compound 0.001 µM) of 106% and a viability, T/C [5] of 103%. It also gave a viability, T/C [6] of 82.6%, a viability, T/C [7] of 17.1% and a viability, T/C [8] of 16.3%. It also gave a viability, T/C (second compound 0.316 µM, first compound 0.000316 µM) of 109%, a viability, T/C (second compound 0.316 µM, first compound 0.001 µM) of 100% and a viability, T/C [9] of 108%. The viability, T/C [10] was 88.9%, the viability, T/C [11] was 15.8% and the viability, T/C [12] was 13.8%. It also gave a viability, T/C (second compound 1 µM, first compound 0.000316 µM) of 113%, a viability, T/C (second compound 1 µM, first compound 0.001 µM) of 101% and a viability, T/C [13] of 108%. The viability, T/C [14] was 91.1%, the viability, T/C [15] was 15.8% and the viability, T/C [16] was 18.1%. It also gave a viability, T/C (second compound 3.16 µM, first compound 0.000316 µM) of 110%, a viability, T/C (second compound 3.16 µM, first compound 0.001 µM) of 113% and a viability, T/C [17] of 107%. The viability, T/C [18] was 79.6%, the viability, T/C [19] was 22.8% and the viability, T/C [20] was 19%. It also gave a viability, T/C (second compound 10 µM, first compound 0.000316 µM) of 109%, a viability, T/C (second compound 10 µM, first compound 0.001 µM) of 104% and a viability, T/C [21] of 99.9%. It also gave a viability, T/C [22] of 76.5%, a viability, T/C [23] of 21.4% and a viability, T/C [24] of 20.3%.

With CCc1cc2c(N3CCc4c(cc(Cn5ccnc5)cc4-c4cn(C)nc4C(F)(F)F)C3=O)ccnc2c(OC)n1 + COC1C(OC(N)=O)C(O)C(Oc2ccc3c(O)c(NC(=O)c4ccc(O)c(CC=C(C)C)c4)c(=O)oc3c2C)OC1(C)C the IC50 (second compound 0.0316 µM) was greater than 10 µM, the IC50 (second compound 0.1 µM) was greater than 10 µM and the IC50 (second compound 0.316 µM) was greater than 10 µM. The IC50 (second compound 1 µM) was greater than 10 µM, the IC50 (second compound 3.16 µM) was greater than 10 µM and the IC50 (second compound 10 µM) was greater than 10 µM. The viability, T/C [3] was 109%, the viability, T/C [4] was 107% and the viability, T/C [25] was 96.7%. For the same compound, the viability, T/C [26] was 86.4%, the viability, T/C (second compound 0.0316 µM, first compound 3.16 µM) was 90.8% and the viability, T/C (second compound 0.0316 µM, first compound 10 µM) was 72.8%. The viability, T/C [7] was 101%, the viability, T/C [8] was 96% and the viability, T/C [27] was 96.8%. The viability, T/C [28] was 96.8%, the viability, T/C (second compound 0.1 µM, first compound 3.16 µM) was 91.5% and the viability, T/C (second compound 0.1 µM, first compound 10 µM) was 81.5%. The viability, T/C [11] was 99.8%, the viability, T/C [12] was 104% and the viability, T/C [29] was 96.5%. The viability, T/C [30] was 96.4%, the viability, T/C (second compound 0.316 µM, first compound 3.16 µM) was 88.8% and the viability, T/C (second compound 0.316 µM, first compound 10 µM) was 82.1%. It also gave a viability, T/C [15] of 112%, a viability, T/C [16] of 104% and a viability, T/C [31] of 99%. The viability, T/C [32] was 93.7%, the viability, T/C (second compound 1 µM, first compound 3.16 µM) was 85.8% and the viability, T/C (second compound 1 µM, first compound 10 µM) was 76.6%. The viability, T/C [19] was 107%, the viability, T/C [20] was 102% and the viability, T/C [33] was 97.8%. For the same compound, the viability, T/C [34] was 86.8%, the viability, T/C (second compound 3.16 µM, first compound 3.16 µM) was 82.4% and the viability, T/C (second compound 3.16 µM, first compound 10 µM) was 72.2%. For the same compound, the viability, T/C [23] was 113%, the viability, T/C [24] was 99% and the viability, T/C [35] was 96%. For the same compound, the viability, T/C [36] was 86.5%, the viability, T/C (second compound 10 µM, first compound 3.16 µM) was 84% and the viability, T/C (second compound 10 µM, first compound 10 µM) was 72.9%.

COc1cccc(OCCCN)c1-c1cc(Nc2cnc(C#N)cn2)n[nH]1 + Cc1cccc(N(C)C(=O)C2C(O)CCN2c2nc(C)cc(C(F)(F)F)c2C#N)c1 showed an IC50 (second compound 0.0316 µM) of 0.0178 µM, an IC50 (second compound 0.1 µM) of 0.016 µM and an IC50 (second compound 0.316 µM) of 0.016 µM. It also gave an IC50 (second compound 1 µM) of 0.0134 µM, an IC50 (second compound 3.16 µM) of 0.0132 µM and an IC50 (second compound 10 µM) of 0.0136 µM. For the same compound, the viability, T/C [1] was 109%, the viability, T/C [2] was 78.1% and the viability, T/C [3] was 21.9%. For the same compound, the viability, T/C [4] was 7.22%, the viability, T/C [25] was 5.75% and the viability, T/C [26] was 4.08%. The viability, T/C [5] was 95%, the viability, T/C [6] was 75.2% and the viability, T/C [7] was 13.4%. For the same compound, the viability, T/C [8] was 7.01%, the viability, T/C [27] was 6.2% and the viability, T/C [28] was 4.45%. It also gave a viability, T/C [9] of 102%, a viability, T/C [10] of 77.6% and a viability, T/C [11] of 10%. It also gave a viability, T/C [12] of 6.6%, a viability, T/C [29] of 5.64% and a viability, T/C [30] of 5.58%. The viability, T/C [13] was 104%, the viability, T/C [14] was 64.2% and the viability, T/C [15] was 8.06%. The viability, T/C [16] was 5.29%, the viability, T/C [31] was 5.1% and the viability, T/C [32] was 4.45%. For the same compound, the viability, T/C [17] was 112%, the viability, T/C [18] was 63% and the viability, T/C [19] was 9.04%. The viability, T/C [20] was 6.82%, the viability, T/C [33] was 5.92% and the viability, T/C [34] was 6.01%. It also gave a viability, T/C [21] of 98.6%, a viability, T/C [22] of 64.2% and a viability, T/C [23] of 11.1%. The viability, T/C [24] was 5.73%, the viability, T/C [35] was 6.26% and the viability, T/C [36] was 5.41%.
